Test results: patent publication US20050136108A1, “Stepwise delivery of topiramate over prolonged period of time” (priority 2003, published 2005)
Converted amounts (≈) assume the structure as drawn.

Key:
[1] = Aqueous solubility of topiramate; type: physicochemical; settings: water, 37 °C, thermodynamic from solid, range stated without source
Method: Aqueous solubility is determined by adding the therapeutic agent to stirred or agitated water maintained in a constant temperature bath at a temperature of 37 degrees centigrade until no more agent dissolves. The resulting solution saturated with active agent is then filtered, typically under pressure through a 0.8-micron Millipore filter, and the concentration in solution is measured by any appropriate analytical method including gravimetric, ultraviolet spectrophometry, chromatography, and the like.

[2] = in vivo; cited from earlier work
[3] = cited from earlier work
[4] = Intrinsic dissolution rate in water; type: physicochemical; settings: water at 37° C.
Text: Intrinsic dissolution is a method that utilizes a compressed disc of known area (a constant surface), effectively eliminating surface area and surface electrical charges as dissolution variables. The dissolution rate obtained by this method is termed the intrinsic dissolution rate and is characteristic of each solid compound in a given solvent under the fixed experimental conditions. The value is generally expressed as mg dissolved per minute per centimeters squared and is useful in predicting probable absorption problems due to dissolution rate. […] See USP General Chapter <1087> for more information.

## CC1(C)O[C@@H]2[C@@H](CO[C@@]3(COS(N)(=O)=O)OC(C)(C)O[C@@H]23)O1 [Topiramate, topiramate]
[1]
  solubility: 9.8 to 13 mg/mL (≈ 28.9 to 38.3 mM)
[2]
  excretion: excreted largely through the urine
  metabolism: not extensively metabolized
  pharmacokinetics (dose dependence of blood plasma concentration): linear
[3]; alkaline solutions
  solubility in alkaline solutions containing sodium hydroxide or sodium phosphate: soluble
[3]; organic solvents
  solubility in acetone, dimethylsulfoxide and ethanol: soluble
[3]; water
  solubility of topiramate in water: about 9.8 mg/ml
[4]
  dissolution rate in water: below 0.6 mg/min/cm2
